{
  "source": "patent US9642839B2",
  "about": "“Substance having tyrosine kinase inhibitory activity and preparation method and use thereof” (Institute of Radiation Medicine, China Academy of Military …, priority 2013, dated 2017)",
  "key": {"MHCC97-H cells": {"system": "MHCC97-H cells", "assay": "In vitro antitumor activity, MTS cell proliferation", "type": "cell-based, human", "details": "Homo sapiens, MHCC97H, hepatocellular cancer, 72 hours", "method": "(§1) Method: 14 cell lines (MKN-45 cells, MHCC97-L cells, MHCC97-H cells, HLE cells, HepG2 cells, 7721 cells, L02 cells, A375 cells, H460 cells, A549 cells, SK-N-SH cells, MCF-7 cells, K562 cells, and Ba/F3-Tpr-Met cells (pre-B cells which are malignantly transformed by the c-Met constitutive active mutant Tpr-Met) were seeded into 96-well plate at 1×10^4 cells/well, and each well was added with 150 μl DMEM medium (purchased from Invitrogen) containing 10% fetal bovine serum (purchased from Hyclone). When cell adherent was observed, different concentrations of 2-indolone derivatives (concentrations at 0.1-10 μM) were added, in addition to the negative control (vehicle control group) and blank control (medium group). After culture at 37° C., 5% CO2 for 72 hours, MTS reagent (Promega Corporation) were added for further culture for 2-4 h."}, "A549 cells": {"system": "A549 cells", "assay": "In vitro antitumor activity, MTS cell proliferation", "type": "cell-based, human", "details": "Homo sapiens, A549, lung cancer, 72 hours", "method": "as §1"}, "NCI-H460 cells": {"system": "NCI-H460 cells", "assay": "Subcutaneous tumor-bearing nude mice model", "type": "in vivo", "details": "NCI-H460 s.c. nude mice; 16 mg/kg intraperitoneal, once every 24 h, 6 administrations; by tumor weight", "source_text": "(§2) The cells were washed with PBS twice, and suspended."}, "HepG2 cells": {"system": "HepG2 cells", "assay": "Subcutaneous tumor-bearing nude mice model", "type": "in vivo", "details": "HepG2 s.c. nude mice; 16 mg/kg intraperitoneal, once every 24 h, 6 administrations; by tumor weight", "source_text": "as §2"}, "L02 cells": {"system": "L02 cells", "assay": "MTS cell proliferation, normal liver cells", "type": "cell-based", "details": "Homo sapiens, L02, normal hepatic cells, 72 hours", "method": "[…] After culture at 37° C., 5% CO2 for 72 hours, MTS reagent (Promega Corporation) were added for further culture for 2-4 h."}, "TrkB": {"target": "TrkB (Homo sapiens, UniProt Q16620)", "sequence (Q16620 32-822, species assumed)": "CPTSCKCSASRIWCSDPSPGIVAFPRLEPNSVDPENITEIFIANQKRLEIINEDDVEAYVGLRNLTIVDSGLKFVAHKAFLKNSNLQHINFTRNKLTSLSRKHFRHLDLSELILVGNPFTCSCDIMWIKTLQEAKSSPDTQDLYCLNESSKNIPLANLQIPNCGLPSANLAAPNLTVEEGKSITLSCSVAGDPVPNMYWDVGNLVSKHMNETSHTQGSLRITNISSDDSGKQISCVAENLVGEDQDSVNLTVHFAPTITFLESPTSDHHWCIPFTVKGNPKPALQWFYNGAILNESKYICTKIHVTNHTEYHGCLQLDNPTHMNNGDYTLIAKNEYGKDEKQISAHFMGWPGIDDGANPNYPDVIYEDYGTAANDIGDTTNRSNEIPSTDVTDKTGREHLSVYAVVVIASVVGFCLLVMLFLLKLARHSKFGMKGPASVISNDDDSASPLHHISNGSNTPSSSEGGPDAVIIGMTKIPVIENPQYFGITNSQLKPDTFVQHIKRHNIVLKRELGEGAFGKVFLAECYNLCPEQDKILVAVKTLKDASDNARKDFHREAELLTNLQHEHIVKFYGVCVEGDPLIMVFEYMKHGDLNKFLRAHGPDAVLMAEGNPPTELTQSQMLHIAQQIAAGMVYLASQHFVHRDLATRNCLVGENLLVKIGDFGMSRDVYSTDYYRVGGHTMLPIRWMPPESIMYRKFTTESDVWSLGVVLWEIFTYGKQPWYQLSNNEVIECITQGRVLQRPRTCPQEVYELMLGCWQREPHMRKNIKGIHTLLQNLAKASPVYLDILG", "assay": "Western blot, BDNF-induced TrkB phosphorylation and signaling pathway in SK-N-SH cells", "type": "cell-based", "details": "0.05-1.0 μM, 200 ng/ml BDNF", "method": "The medium was changed once every 1-2 days. […] 500 ng/mL NGF or 200 ng/ml BDNF (if not added, marked as “-”) were added to stimulate the cells for 5 min. After cell lysis, total protein was extracted. Western blot assay was carried out with TrkA phosphorylated and non-phosphorylated (p-TrkA) antibodies, TrkB phosphorylated and non-phosphorylated (p-TrkB) antibodies, ERK phosphorylated and non-phosphorylated (p-ERK) antibodies, Akt phosphorylated and non-phosphorylated (p-Akt) antibodies, and GAPDH antibody."}},
  "data": [
    {"smiles": "Cc1ccccc1NS(=O)(=O)c1ccc2c(c1)/C(=C/c1nc3ccccc3[nH]1)C(=O)N2", "note": "[Indo 5, 3-(1H-benzimidazol-2-methylene)-5-(2-methylphenylaminosulfo)-2-indolone]", "values": [
      {"measurement": "IC50", "setting": "MHCC97-H cells", "value": 1.03, "unit": "µM"},
      {"measurement": "IC50", "setting": "A549 cells", "value": 2.19, "unit": "µM"},
      {"measurement": "Tumor inhibition rate", "setting": "NCI-H460 cells", "value": 59, "unit": "%"},
      {"measurement": "Tumor inhibition rate", "setting": "HepG2 cells", "value": 61, "unit": "%"},
      {"measurement": "IC50", "setting": "L02 cells", "value": 20.9, "unit": "µM"},
      {"measurement": "Phosphorylation of TrkB and downstream ERK and Akt", "setting": "TrkB", "value": "significantly inhibited"}
    ]}
  ]
}
